Measured values: patent publication EP3843702B1, “IMMEDIATE RELEASE FIXED-DOSE COMBINATION OF MEMANTINE AND DONEPEZIL” (Tecnimede, Sociedade Técnico-Medicinal, SA, priority 2019, dated 2020)

Conditions: in vivo

CC12CC3CC(C)(C1)CC(N)(C3)C2 [Memantine 20mg, 3,5-dimethyladamantan-1-amine]
AUC 0→72 Point Estimate [%]: 103.89% | Cmax Point Estimate [%]: 101.40%
